Results from PubChem BioAssay (NCI).
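These data come from cells grown in 96-well plates and exposed to compound for 48 hours at five concentrations. TGI is the concentration that stops growth completely.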

Experiments:
Test in all cases: NCI tumour cell line growth inhibition, 48 h
SK-MEL-2 melanoma = tested on: SK-MEL-2 melanoma
786-0 renal = tested on: 786-0 renal
SN12C renal = tested on: SN12C renal
ACHN renal = tested on: ACHN renal
CCRF-CEM leukemia = tested on: CCRF-CEM leukemia
OVCAR-3 ovarian = tested on: OVCAR-3 ovarian
NCI/ADR-RES ovarian = tested on: NCI/ADR-RES ovarian
HCC-2998 colon = tested on: HCC-2998 colon
UACC-257 melanoma = tested on: UACC-257 melanoma
SK-MEL-28 melanoma = tested on: SK-MEL-28 melanoma
HL-60(TB) leukemia = tested on: HL-60(TB) leukemia
HCT-116 colon = tested on: HCT-116 colon
BT-549 breast = tested on: BT-549 breast
PC-3 prostate = tested on: PC-3 prostate
LOX IMVI melanoma = tested on: LOX IMVI melanoma
A549 NSCLC = tested on: A549 NSCLC
K-562 leukemia = tested on: K-562 leukemia
HOP-92 NSCLC = tested on: HOP-92 NSCLC
HCT-15 colon = tested on: HCT-15 colon
A498 renal = tested on: A498 renal
HT29 colon = tested on: HT29 colon
MDA-MB-435 = tested on: MDA-MB-435
SF-539 CNS = tested on: SF-539 CNS
MDA-MB-231 breast = tested on: MDA-MB-231 breast
COLO 205 colon = tested on: COLO 205 colon
SF-295 CNS = tested on: SF-295 CNS
OVCAR-5 ovarian = tested on: OVCAR-5 ovarian
KM12 colon = tested on: KM12 colon
NCI-H460 lung = tested on: NCI-H460 lung
UO-31 renal = tested on: UO-31 renal
SW-620 colon = tested on: SW-620 colon
TK-10 renal = tested on: TK-10 renal
MDA-N = tested on: MDA-N
U251 CNS = tested on: U251 CNS
NCI-H23 lung = tested on: NCI-H23 lung
EKVX NSCLC = tested on: EKVX NSCLC
SNB-19 CNS = tested on: SNB-19 CNS
SNB-75 CNS = tested on: SNB-75 CNS
MCF7 breast = tested on: MCF7 breast
DU-145 prostate = tested on: DU-145 prostate
SF-268 CNS = tested on: SF-268 CNS
OVCAR-8 ovarian = tested on: OVCAR-8 ovarian
MOLT-4 leukemia = tested on: MOLT-4 leukemia
NCI-H522 lung = tested on: NCI-H522 lung
HOP-62 NSCLC = tested on: HOP-62 NSCLC
M14 melanoma = tested on: M14 melanoma
T-47D breast = tested on: T-47D breast
NCI-H226 lung = tested on: NCI-H226 lung
HS 578T breast = tested on: HS 578T breast
SR leukemia = tested on: SR leukemia
RPMI-8226 leukemia = tested on: RPMI-8226 leukemia
UACC-62 melanoma = tested on: UACC-62 melanoma
IGROV1 ovarian = tested on: IGROV1 ovarian
SK-MEL-5 melanoma = tested on: SK-MEL-5 melanoma
CAKI-1 renal = tested on: CAKI-1 renal
MALME-3M melanoma = tested on: MALME-3M melanoma
SK-OV-3 ovarian = tested on: SK-OV-3 ovarian
OVCAR-4 ovarian = tested on: OVCAR-4 ovarian
RXF 393 renal = tested on: RXF 393 renal

SMILES: CCOP(=O)(OCC)/C(C#N)=C/c1nccn1C
- TGI (SK-MEL-2 melanoma): > 100 µM
- TGI (786-0 renal): > 100 µM
- TGI (SN12C renal): > 100 µM
- TGI (ACHN renal): > 100 µM
- TGI (CCRF-CEM leukemia): > 100 µM
- TGI (OVCAR-3 ovarian): > 100 µM
- TGI (NCI/ADR-RES ovarian): > 100 µM
- TGI (HCC-2998 colon): > 100 µM
- TGI (UACC-257 melanoma): > 100 µM
- TGI (SK-MEL-28 melanoma): > 100 µM
- TGI (HL-60(TB) leukemia): > 100 µM
- TGI (HCT-116 colon): > 100 µM
- TGI (BT-549 breast): > 100 µM
- TGI (PC-3 prostate): > 100 µM
- TGI (LOX IMVI melanoma): > 100 µM
- TGI (A549 NSCLC): > 100 µM
- TGI (K-562 leukemia): > 100 µM
- TGI (HOP-92 NSCLC): > 100 µM
- TGI (HCT-15 colon): > 100 µM
- TGI (A498 renal): > 100 µM
- TGI (HT29 colon): > 100 µM
- TGI (MDA-MB-435): > 100 µM
- TGI (SF-539 CNS): > 100 µM
- TGI (MDA-MB-231 breast): > 100 µM
- TGI (COLO 205 colon): > 100 µM
- TGI (SF-295 CNS): > 100 µM
- TGI (OVCAR-5 ovarian): > 100 µM
- TGI (KM12 colon): > 100 µM
- TGI (NCI-H460 lung): > 100 µM
- TGI (UO-31 renal): > 100 µM
- TGI (SW-620 colon): > 100 µM
- TGI (TK-10 renal): > 100 µM
- TGI (MDA-N): > 100 µM
- TGI (U251 CNS): > 100 µM
- TGI (NCI-H23 lung): > 100 µM
- TGI (EKVX NSCLC): > 100 µM
- TGI (SNB-19 CNS): > 100 µM
- TGI (SNB-75 CNS): > 100 µM
- TGI (MCF7 breast): > 100 µM
- TGI (DU-145 prostate): > 100 µM
- TGI (SF-268 CNS): > 100 µM
- TGI (OVCAR-8 ovarian): > 100 µM
- TGI (MOLT-4 leukemia): > 100 µM
- TGI (NCI-H522 lung): > 100 µM
- TGI (HOP-62 NSCLC): > 100 µM
- TGI (M14 melanoma): > 100 µM
- TGI (T-47D breast): > 100 µM
- TGI (NCI-H226 lung): > 100 µM
- TGI (HS 578T breast): > 100 µM
- TGI (SR leukemia): > 100 µM
- TGI (RPMI-8226 leukemia): > 100 µM

SMILES: CC(CO)(CO)N1C(=O)C2C3c4ccccc4C(c4ccccc43)C2C1=O (configuration not stated)
- TGI (UACC-62 melanoma): > 100 µM
- TGI (SK-MEL-2 melanoma): > 100 µM
- TGI (786-0 renal): > 100 µM
- TGI (IGROV1 ovarian): > 100 µM
- TGI (SN12C renal): > 100 µM
- TGI (ACHN renal): > 100 µM
- TGI (CCRF-CEM leukemia): > 100 µM
- TGI (OVCAR-3 ovarian): > 100 µM
- TGI (NCI/ADR-RES ovarian): > 100 µM
- TGI (HCC-2998 colon): > 100 µM
- TGI (UACC-257 melanoma): > 100 µM
- TGI (SK-MEL-28 melanoma): > 100 µM
- TGI (HL-60(TB) leukemia): > 100 µM
- TGI (HCT-116 colon): > 100 µM
- TGI (SK-MEL-5 melanoma): > 100 µM
- TGI (BT-549 breast): > 100 µM
- TGI (PC-3 prostate): > 100 µM
- TGI (A549 NSCLC): > 100 µM
- TGI (K-562 leukemia): > 100 µM
- TGI (CAKI-1 renal): > 100 µM
- TGI (HCT-15 colon): > 100 µM
- TGI (A498 renal): > 100 µM
- TGI (HT29 colon): > 100 µM
- TGI (MDA-MB-435): > 100 µM
- TGI (SF-539 CNS): > 100 µM
- TGI (MDA-MB-231 breast): > 100 µM
- TGI (COLO 205 colon): > 100 µM
- TGI (SF-295 CNS): > 100 µM
- TGI (OVCAR-5 ovarian): > 100 µM
- TGI (KM12 colon): > 100 µM
- TGI (NCI-H460 lung): > 100 µM
- TGI (UO-31 renal): > 100 µM
- TGI (SW-620 colon): > 100 µM
- TGI (MALME-3M melanoma): > 100 µM
- TGI (TK-10 renal): > 100 µM
- TGI (MDA-N): > 100 µM
- TGI (U251 CNS): > 100 µM
- TGI (NCI-H23 lung): > 100 µM
- TGI (SNB-19 CNS): > 100 µM
- TGI (SK-OV-3 ovarian): > 100 µM
- TGI (SNB-75 CNS): > 100 µM
- TGI (MCF7 breast): > 100 µM
- TGI (DU-145 prostate): > 100 µM
- TGI (SF-268 CNS): > 100 µM
- TGI (OVCAR-8 ovarian): > 100 µM
- TGI (MOLT-4 leukemia): > 100 µM
- TGI (NCI-H522 lung): > 100 µM
- TGI (HOP-62 NSCLC): > 100 µM
- TGI (M14 melanoma): > 100 µM
- TGI (T-47D breast): > 100 µM
- TGI (NCI-H226 lung): > 100 µM
- TGI (HS 578T breast): > 100 µM
- TGI (SR leukemia): > 100 µM

SMILES: CCCCCCCCCCCCCCCCCCNc1nc(=O)n(C2CC(O)C(COP(=O)(O)OCC(COP(=O)(O)OC3C(CO)OC(n4ccc(N)nc4=O)C3O)OCCCCCCCCCCCCCCCCCC)O2)cc1F (configuration not stated)
- TGI (UACC-62 melanoma): > 100 µM
- TGI (SK-MEL-2 melanoma): > 100 µM
- TGI (786-0 renal): 33.3 µM
- TGI (IGROV1 ovarian): > 100 µM
- TGI (SN12C renal): > 100 µM
- TGI (ACHN renal): > 100 µM
- TGI (CCRF-CEM leukemia): > 100 µM
- TGI (OVCAR-3 ovarian): > 100 µM
- TGI (NCI/ADR-RES ovarian): > 100 µM
- TGI (HCC-2998 colon): > 100 µM
- TGI (UACC-257 melanoma): > 100 µM
- TGI (SK-MEL-28 melanoma): > 100 µM
- TGI (HL-60(TB) leukemia): > 100 µM
- TGI (HCT-116 colon): > 100 µM
- TGI (SK-MEL-5 melanoma): > 100 µM
- TGI (BT-549 breast): > 100 µM
- TGI (PC-3 prostate): 35.4 µM
- TGI (LOX IMVI melanoma): 42.5 µM
- TGI (A549 NSCLC): > 100 µM
- TGI (K-562 leukemia): > 100 µM
- TGI (HOP-92 NSCLC): > 100 µM
- TGI (CAKI-1 renal): > 100 µM
- TGI (HCT-15 colon): > 100 µM
- TGI (A498 renal): > 100 µM
- TGI (HT29 colon): > 100 µM
- TGI (MDA-MB-435): > 100 µM
- TGI (SF-539 CNS): > 100 µM
- TGI (MDA-MB-231 breast): > 100 µM
- TGI (COLO 205 colon): 37.7 µM
- TGI (SF-295 CNS): > 100 µM
- TGI (OVCAR-5 ovarian): > 100 µM
- TGI (KM12 colon): > 100 µM
- TGI (NCI-H460 lung): 30.9 µM
- TGI (OVCAR-4 ovarian): > 100 µM
- TGI (UO-31 renal): > 100 µM
- TGI (SW-620 colon): > 100 µM
- TGI (MALME-3M melanoma): > 100 µM
- TGI (TK-10 renal): > 100 µM
- TGI (MDA-N): > 100 µM
- TGI (U251 CNS): 34.6 µM
- TGI (NCI-H23 lung): > 100 µM
- TGI (EKVX NSCLC): > 100 µM
- TGI (SNB-19 CNS): 56.5 µM
- TGI (SK-OV-3 ovarian): > 100 µM
- TGI (SNB-75 CNS): > 100 µM
- TGI (MCF7 breast): > 100 µM
- TGI (DU-145 prostate): > 100 µM
- TGI (SF-268 CNS): > 100 µM
- TGI (OVCAR-8 ovarian): > 100 µM
- TGI (MOLT-4 leukemia): > 100 µM
- TGI (NCI-H522 lung): > 100 µM
- TGI (HOP-62 NSCLC): > 100 µM
- TGI (M14 melanoma): > 100 µM
- TGI (RXF 393 renal): 40.8 µM
- TGI (T-47D breast): > 100 µM
- TGI (NCI-H226 lung): > 100 µM
- TGI (HS 578T breast): > 100 µM
- TGI (RPMI-8226 leukemia): 74.2 µM
